Laboratory results as given in US20250002452A1, “BICYCLOPENTANE DERIVATIVES” (ICAGEN, LLC, priority 2022, published 2025).

target: human Kv7.2 (Homo sapiens (Human), UniProt O43526); assay: SyncroPatch 384 electrophysiology, activation of Kv7.2 in CHO cells; format: cell-based; details: Kv7.2 activation max %, relative to 30 μM ML-213 max activation
Procedure: The potency of Kv7 uotentiators was determined using the SyncroPatch 384 (Nanion) high throughput electrophysiology platform.
CHO cells stably expressing either human Kv7.2, Kv7.4 or Kv7.5/7.3 under a constitutive CMV promoter were used for these studies. Cells were maintained in F12 Hams+1 mM L-glutamine (Hyclone) supplemented with 10% FBS (Sigma), 0.3× NEAA (Non-essential Gamino-acids) and 400ug/ml G418 at 37° C. in 5% CO2. Cells were cultured in T-225 flasks (Nunc) for 2-3 days to reach 85-95% confluence prior to electrophysiological recording.
Earle's balanced salt solution (in mM): 135 NaCl, 5.4 KCl, 5 Glucose, 2 CaCl2), 1 MgCl2, 5 HEPES, pH 7.4. Seal enhancer solution (in mM): 90 NaCl, 3 KCl, 35 CaCl2), 10 MgCl2, 10 HEPES, pH 7.4. Extracellular recording solution (in mM): 71 NaCl, 70 NMDG, 13 KCl, 5 Glucose, 2 CaCl2), 1 MgCl2, 10 HEPES, pH 7.4. Intracellular recording solution (in mM): 130 KF, 20 KCl, 4 EGTA, 10 HEPES, 2 EDTA, 0.01 Escin, pH 7.2.
Cells were harvested for electrophysiological recording upon reaching appropriate confluence. Cells were first washed in DPBS (Hyclone, Cat #SH30028.03) and then 2 ml of Accutase (MP Biomedicals #1000449) was added at 28° C. until ˜90% of cells were suspended. F12 HAM's media+1 mM L-glutamine (Hyclone, SH30026.02) was then added to the flask to dilute the accutase. Cells were then triturated until a single cell suspension was achieved, a cell count was performed, and cells were centrifuged for 2 min. at 1,000 rpm. Media was then aspirated, and cells were resuspended in Earle's balanced salt solution to a concentration of 0.75×10^6 cells/ml and allowed to recover for 25 min at 10° C.
At the beginning of each assay, 20 μl of cell suspension was dispensed into each well of a multi-hole 384-well SyncroPatch chip by the onboard pipettor. Cell sealing was initiated, and seal enhancer solution was added to facilitate seal formation. Upon completion of sealing, cells were washed 3 times with extracellular recording solution and the assay voltage protocol was started. Human Kv7.2, Kv7.4 or Kv7.5/7.3 channels were evaluated using a voltage protocol in which cells were voltage-clamped at a holding potential of −60 mV. Potassium currents were continuously activated with a series of three voltage steps to −30 mV for 3 seconds, 40 mV for 1 second and −90 mV for 4 seconds with 12 seconds between successive voltage sweeps. Potassium currents were measured from the −90 mV repolarizing step. Baseline current was assessed for 3.5 minutes prior to the addition of 5.6 μM zinc pyrithione (1μM for Kv7.4). Kv7.2, Kv7.4 or Kv7.5/7.3 current in the presence of zinc pyrithione was acquired over five minutes to allow channels to reach steady state activity prior to addition of test agents. Channel activity was monitored for three minutes preceding the addition of 30 μM ML-213 (3 minutes) to achieve maximum activation. 150 mM TEA with 10 μM XE-991 was applied for 2 minutes to measure the leak current during maximum inhibition of Kv7.2, Kv7.4 or Kv7.5/7.3 channels.
Example 61 Data Analysis Data were collected on the SyncroPatch platform using PatchControl software (Nanion) and processed and analyzed using DataControl Software (Nanion). Percent activation was calculated from potassium current as follows: The average current for the 5 sweeps in the presence of zinc pyrithione immediately preceding test agent addition was taken as the ‘control’ data. Likewise, the average potassium current in the presence of test agents 5 sweeps immediately preceding addition of 30 μM ML-213 was determined for ‘drug’ data. The average potassium current 5 sweeps immediately prior to addition of 150 mM TEA+10 μM XE-991 was determined for ‘max activation’ data while average currents from 5 sweeps immediately following addition of TEA was determined for ‘max inhibition’ data. […]

Question: With O=C(N[C@@H](CO)c1cccc(OC(F)(F)F)c1)NC12CC(C(F)(F)F)(C1)C2 [Example 55, 1-[(1R)-2-hydroxy-1-[3-(trifluoromethoxy)phenyl]ethyl]-3-[3-(trifluoromethyl)-1-bicyclo[1.1.1]pentanyl]urea] as the compound, how does the Kv7.2 max read?
Answer: Its Kv7.2 max is 77%.

Question: With [2H]C([2H])(NC(=O)NC12CC(C(F)(F)F)(C1)C2)c1cccc(C#N)c1 [Example 52, 1-[(3-cyanophenyl)-dideuteriomethyl]-3-[3-(trifluoromethyl)-1-bicyclo[1.1.1]pentanyl]urea] as the compound, how does the Kv7.2 max read?
Answer: The Kv7.2 max was 42%.

Question: How did the Kv7.2 max turn out when N#CCOc1cccc(CNC(=O)NC23CC(C(F)(F)F)(C2)C3)c1 [Example 49, 1-[[3-(cyanomethoxy)phenyl]methyl]-3-[3-(trifluoromethyl)-1-bicyclo[1.1.1]pentanyl]urea] was run?
Answer: Its Kv7.2 max is 53%.

Question: How did the Kv7.2 max turn out when COC12CC(NC(=O)NCc3cccc(OC(F)(F)F)c3)(C1)C2 [Example 1, 1-(3-methoxy-1-bicyclo[1.1.1]pentanyl)-3-[[3-(trifluoromethoxy)phenyl]methyl]urea] was run?
Answer: Its Kv7.2 max is 73%.

Question: O=C(NCc1cccc(Br)c1)NC12CC(C(F)(F)F)(C1)C2 [Example 36, 1-[(3-bromophenyl)methyl]-3-[3-(trifluoromethyl)-1-bicyclo[1.1.1]pentanyl]urea] was tested. Which Kv7.2 max did it give?
Answer: The Kv7.2 max was 55%.

Question: With O=C(NCc1cccc(OC(F)(F)F)c1)NC12CC(C(F)(F)F)(C1)C2 [Example 2, 1-[[3-(trifluoromethoxy)phenyl]methyl]-3-[3-(trifluoromethyl)-1-bicyclo[1.1.1]pentanyl]urea] as the compound, how does the Kv7.2 max read?
Answer: Its Kv7.2 max is 70%.

Question: CC(NC(=O)NC12CC(C1)C2)c1cccc(OC(F)(F)F)c1 (stereo not drawn) [Example 37, 1-(1-bicyclo[1.1.1]pentanyl)-3-[1-[3-(trifluoromethoxy)phenyl]ethyl]urea] was tested. Which Kv7.2 max did it give?
Answer: Its Kv7.2 max is 44%.

Question: How did the Kv7.2 max turn out when [2H]C([2H])(NC(=O)NC12CC(C(F)(F)F)(C1)C2)c1cccc(OC(F)(F)F)c1 [Example 35, 1-[dideuterio-[3-(trifluoromethoxy)phenyl]methyl]-3-[3-(trifluoromethyl)-1-bicyclo[1.1.1]pentanyl]urea] was run?
Answer: The Kv7.2 max was 63%.

Question: O=C(NCc1cccc(OC(F)(F)F)c1)NC12CC(C1)C2 [Example 28, 1-(1-bicyclo[1.1.1]pentanyl)-3-[[3-(trifluoromethoxy)phenyl]methyl]urea] was tested. Which Kv7.2 max did it give?
Answer: The Kv7.2 max was 75%.

Question: Which Kv7.2 max does the source give for O=C(NCc1ccc2c(c1)OC(F)(F)O2)NC12CC(C(F)(F)F)(C1)C2 [Example 33, 1-[(2,2-difluoro-1,3-benzodioxol-5-yl)methyl]-3-[3-(trifluoromethyl)-1-bicyclo[1.1.1]pentanyl]urea] here?
Answer: Its Kv7.2 max is 58%.

Question: For COC12CC(NC(=O)NCc3cccc(C(F)(F)F)c3)(C1)C2 [Example 4, 1-(3-methoxy-1-bicyclo[1.1.1]pentanyl)-3-[[3-(trifluoromethyl)phenyl]methyl]urea], which Kv7.2 max is on record?
Answer: Its Kv7.2 max is 64%.

Question: CC(C)(C)c1cccc(CNC(=O)NC23CC(C2)C3)c1 [Example 42, 1-(1-bicyclo[1.1.1]pentanyl)-3-[(3-tert-butylphenyl)methyl]urea] was tested. Which Kv7.2 max did it give?
Answer: The Kv7.2 max was 110%.

Question: For O=C(NCc1cccc(OC(F)F)c1)NC12CC(C1)C2 [Example 43, 1-(1-bicyclo[1.1.1]pentanyl)-3-[[3-(difluoromethoxy)phenyl]methyl]urea], which Kv7.2 max is on record?
Answer: Its Kv7.2 max is 78%.

Question: With CC12CC(NC(=O)NCc3cccc(OC(F)(F)F)c3)(C1)C2 [Example 46, 1-(3-methyl-1-bicyclo[1.1.1]pentanyl)-3-[[3-(trifluoromethoxy)phenyl]methyl]urea] as the compound, how does the Kv7.2 max read?
Answer: The Kv7.2 max was 86%.

Question: With N#Cc1cccc(CNC(=O)NC23CC(C(F)(F)F)(C2)C3)c1 [Example 5, 1-[(3-cyanophenyl)methyl]-3-[3-(trifluoromethyl)-1-bicyclo[1.1.1]pentanyl]urea] as the compound, how does the Kv7.2 max read?
Answer: The Kv7.2 max was 41%.

Question: For O=C(NCc1cccc(OC(F)F)c1)NC12CC(C(F)(F)F)(C1)C2 [Example 29, 1-[[3-(difluoromethoxy)phenyl]methyl]-3-[3-(trifluoromethyl)-1-bicyclo[1.1.1]pentanyl]urea], which Kv7.2 max is on record?
Answer: Its Kv7.2 max is 52%.

Question: How did the Kv7.2 max turn out when O=C(NCc1cccc(Br)c1)NC12CC(C1)C2 [Example 40, 1-(1-bicyclo[1.1.1]pentanyl)-3-[(3-bromophenyl)methyl]urea] was run?
Answer: Its Kv7.2 max is 58%.

Question: Which Kv7.2 max does the source give for O=C(NCc1cccc(S(F)(F)(F)(F)F)c1)NC12CC(C1)C2 [Example 39, 1-(1-bicyclo[1.1.1]pentanyl)-3-[[3-(pentafluoro-λ6-sulfanyl)phenyl]methyl]urea] here?
Answer: The Kv7.2 max was 75%.

Question: O=C(NCc1ccc(F)c(OC(F)F)c1)NC12CC(C(F)(F)F)(C1)C2 [Example 56, 1-[[3-(difluoromethoxy)-4-fluorophenyl]methyl]-3-[3-(trifluoromethyl)-1-bicyclo[1.1.1]pentanyl]urea] was tested. Which Kv7.2 max did it give?
Answer: The Kv7.2 max was 44%.

Question: How did the Kv7.2 max turn out when O=C(NCc1cccc(Cl)c1)NC12CC(C1)C2 [Example 41, 1-(1-bicyclo[1.1.1]pentanyl)-3-[(3-chlorophenyl)methyl]urea] was run?
Answer: The Kv7.2 max was 49%.

Question: How did the Kv7.2 max turn out when O=C(NCc1cccc(C(F)(F)F)c1)NC12CC(C(F)(F)F)(C1)C2 [Example 7, 1-[3-(trifluoromethyl)-1-bicyclo[1.1.1]pentanyl]-3-[[3-(trifluoromethyl)phenyl]methyl]urea] was run?
Answer: The Kv7.2 max was 75%.

Question: O=C(NCc1cccc(OC(F)(F)F)c1F)NC12CC(C(F)(F)F)(C1)C2 [Example 57, 1-[[3-(trifluoromethoxy)-2-fluorophenyl]methyl]-3-[3-(trifluoromethyl)-1-bicyclo[1.1.1]pentanyl]urea] was tested. Which Kv7.2 max did it give?
Answer: Its Kv7.2 max is 45%.

Question: How did the Kv7.2 max turn out when O=C(N[C@@H](CO)c1cccc(Br)c1)NC12CC(F)(C1)C2 [Example 17, 1-[(1R)-1-(3-bromophenyl)-2-hydroxyethyl]-3-(3-fluoro-1-bicyclo[1.1.1]pentanyl)urea] was run?
Answer: Its Kv7.2 max is 69%.

Question: CC(C)C12CC(NC(=O)NCc3cccc(C(F)(F)F)c3)(C1)C2 [Example 21, 1-(3-propan-2-yl-1-bicyclo[1.1.1]pentanyl)-3-[[3-(trifluoromethyl)phenyl]methyl]urea] was tested. Which Kv7.2 max did it give?
Answer: Its Kv7.2 max is 67%.

Question: For O=C(NC12CC(C1)C2)NC1(c2cccc(C(F)(F)F)c2)CC1 [Example 53, 1-(1-bicyclo[1.1.1]pentanyl)-3-[1-[3-(trifluoromethyl)phenyl]cyclopropyl]urea], which Kv7.2 max is on record?
Answer: The Kv7.2 max was 82%.

Question: How did the Kv7.2 max turn out when C[C@H](NC(=O)NC12CC(C1)C2)c1cccc(OC(F)(F)F)c1 [Example 25, 1-(1-bicyclo[1.1.1]pentanyl)-3-[(1S)-1-[3-(trifluoromethoxy)phenyl]ethyl]urea] was run?
Answer: Its Kv7.2 max is 45%.

Question: Which Kv7.2 max does the source give for O=C(NCc1cccc(C(F)F)c1)NC12CC(C(F)(F)F)(C1)C2 [Example 31, 1-[[3-(difluoromethyl)phenyl]methyl]-3-[3-(trifluoromethyl)-1-bicyclo[1.1.1]pentanyl]urea] here?
Answer: Its Kv7.2 max is 60%.

Question: For O=C(NCc1cccc(C(F)(F)F)c1)NC12CC(C(F)F)(C1)C2 [Example 22, 1-[3-(difluoromethyl)-1-bicyclo[1.1.1]pentanyl]-3-[[3-(trifluoromethyl)phenyl]methyl]urea], which Kv7.2 max is on record?
Answer: Its Kv7.2 max is 74%.

Question: With O=C(N[C@@H](CO)c1cccc(C(F)(F)F)c1)NC12CC(C1)C2 [Example 54, 1-(1-bicyclo[1.1.1]pentanyl)-3-[(1R)-2-hydroxy-1-[3-(trifluoromethyl)phenyl]ethyl]urea] as the compound, how does the Kv7.2 max read?
Answer: The Kv7.2 max was 78%.

Question: For CC12CC(NC(=O)NCc3cccc(C#N)c3)(C1)C2 [Example 14, 1-[(3-cyanophenyl)methyl]-3-(3-methyl-1-bicyclo[1.1.1]pentanyl)urea], which Kv7.2 max is on record?
Answer: The Kv7.2 max was 50%.
